Molecular target: ROCK2 protein (Homo sapiens, UniProt O75116)
Test: Degradation inducing activity of ROCK2 protein in HUVEC cells, Western blotting (Simple Western JESS)
Type: cell-based
Set-up: endogenous in cells; host or cells: HUVEC (ATCC CRL-1730)
Details: HUVEC, 24 h; for inhibition at 1 µM: degradation rate at 1 µM; for inhibition at 10 µM: degradation rate at 10 µM
Procedure, shortened: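 HUVEC cells treated 24 h with compound at 10 µM or 1 µM, then lysed; ROCK2 quantified by capillary Western (Simple Western JESS) using rabbit mAb D1B1, normalized to total loaded protein. Degradation rate (%) calculated relative to DMSO control set at 100%, binned A ≥75%, B 50–75%, C 25–50%, D <25%.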

ROCK2 protein, sequence (O75116 whole entry): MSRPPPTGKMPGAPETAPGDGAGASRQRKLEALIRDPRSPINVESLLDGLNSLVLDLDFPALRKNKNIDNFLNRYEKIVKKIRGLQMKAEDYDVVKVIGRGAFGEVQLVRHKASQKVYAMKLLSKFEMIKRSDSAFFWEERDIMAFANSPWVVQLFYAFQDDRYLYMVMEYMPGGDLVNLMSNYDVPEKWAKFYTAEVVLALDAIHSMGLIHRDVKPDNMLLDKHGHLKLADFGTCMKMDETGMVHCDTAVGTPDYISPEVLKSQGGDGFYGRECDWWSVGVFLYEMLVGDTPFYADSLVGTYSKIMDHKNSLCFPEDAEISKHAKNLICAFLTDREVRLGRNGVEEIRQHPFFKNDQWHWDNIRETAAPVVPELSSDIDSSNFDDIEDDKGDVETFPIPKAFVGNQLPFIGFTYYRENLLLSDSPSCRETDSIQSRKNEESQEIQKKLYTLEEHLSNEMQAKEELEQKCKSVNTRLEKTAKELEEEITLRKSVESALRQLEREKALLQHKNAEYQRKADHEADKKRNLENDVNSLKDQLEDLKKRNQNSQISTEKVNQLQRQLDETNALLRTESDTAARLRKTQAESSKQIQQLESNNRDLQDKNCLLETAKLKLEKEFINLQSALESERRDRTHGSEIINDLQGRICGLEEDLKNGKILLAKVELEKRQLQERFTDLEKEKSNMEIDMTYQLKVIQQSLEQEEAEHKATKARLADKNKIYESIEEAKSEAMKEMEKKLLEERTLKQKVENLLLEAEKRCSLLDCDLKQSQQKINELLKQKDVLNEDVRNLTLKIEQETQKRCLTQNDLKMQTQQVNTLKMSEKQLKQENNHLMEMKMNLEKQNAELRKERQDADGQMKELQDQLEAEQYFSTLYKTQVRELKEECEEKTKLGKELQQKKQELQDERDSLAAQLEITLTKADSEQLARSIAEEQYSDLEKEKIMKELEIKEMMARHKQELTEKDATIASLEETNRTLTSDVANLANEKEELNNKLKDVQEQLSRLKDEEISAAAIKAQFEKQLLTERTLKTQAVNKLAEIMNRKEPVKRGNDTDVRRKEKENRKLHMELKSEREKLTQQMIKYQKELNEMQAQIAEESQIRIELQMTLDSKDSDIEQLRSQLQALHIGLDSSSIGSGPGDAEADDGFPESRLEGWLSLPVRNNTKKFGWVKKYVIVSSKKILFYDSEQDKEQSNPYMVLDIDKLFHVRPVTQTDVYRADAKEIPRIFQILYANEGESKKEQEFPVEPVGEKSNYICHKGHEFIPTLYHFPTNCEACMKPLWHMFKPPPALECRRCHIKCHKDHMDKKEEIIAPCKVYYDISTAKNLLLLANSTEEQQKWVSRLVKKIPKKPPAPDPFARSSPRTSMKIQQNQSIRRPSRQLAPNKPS

Row | SMILES | inhibition at 1 µM [%] | inhibition at 10 µM [%]
1 | COC[C@H]1CN[C@H](C)CN1CC(=O)N1CC(C)(C)c2nc(CN(C)CCOCCOCCOCCOCCOCCOCCN[C@H](Cc3cccc(F)c3)C(=O)Nc3ccc(-c4ccncc4)cc3)c(Cc3ccc(F)cc3)cc21 [Example 34, (R)-24-(3-Fluorobenzyl)-1-(6-(4-fluorobenzyl)-1-(2-((2R,5R)-2-(methoxymethyl)-5-methylpiperazin-1-yl)acetyl)-3,3-dimethyl-2,3-dihydro-1H-pyrrolo[3,2-b]pyridin-5-yl)-2-methyl-N-(4-(pyridin-4-yl)phenyl)-5,8,11,14,17,20-hexaoxa-2,23-diazapentacosan-25-amide] | < 25 | ≥ 75
2 | COC[C@H]1CN[C@H](C)CN1CC(=O)N1CC(C)(C)c2nc(CN(C)CCOCCOCCOCCNC[C@@H](C(=O)Nc3ccc4cnccc4c3)c3ccccc3)c(Cc3ccc(F)cc3)cc21 [Example 38, (S)-1-(6-(4-Fluorobenzyl)-1-(2-((2R,5R)-2-(methoxymethyl)-5-methylpiperazin-1-yl)acetyl)-3,3-dimethyl-2,3-dihydro-1H-pyrrolo[3,2-b]pyridin-5-yl)-N-(isoquinolin-6-yl)-2-methyl-16-phenyl-5,8,11-trioxa-2,14-diazaheptadecan-17-amide] | < 25 | ≥ 75
3 | COC[C@H]1CN[C@H](C)CN1CC(=O)N1CC(C)(C)c2nc(CN(C)CCOCCOCCOCCOCCOCCOCCOCCNC[C@@H](C(=O)Nc3ccc4cnccc4c3)c3ccccc3)c(Cc3ccc(F)cc3)cc21 [Example 42, (S)-1-(6-(4-Fluorobenzyl)-1-(2-((2R,5R)-2-(methoxymethyl)-5-methylpiperazin-1-yl)acetyl)-3,3-dimethyl-2,3-dihydro-1H-pyrrolo[3,2-b]pyridin-5-yl)-N-(isoquinolin-6-yl)-2-methyl-28-phenyl-5,8,11,14,17,20,23-heptaoxa-2,26-diazanonacosan-29-amide] | 50 to 75 | ≥ 75
4 | C[C@@H]1CN(CC(=O)N2CC(C)(C)c3ncc(Cc4ccc(F)cc4)cc32)[C@@H](CN(C)CCOCCOCCOCCOCCN[C@H](C)c2ccc(C(=O)Nc3ccncc3)cc2)CN1 [Example 4, 4-((R)-1-((2R,5R)-1-(2-(6-(4-Fluorobenzyl)-3,3-dimethyl-2,3-dihydro-1H-pyrrolo[3,2-b]pyridin-1-yl)-2-oxoethyl)-5-methylpiperazin-2-yl)-2-methyl-5,8,11,14-tetraoxa-2,17-diazanonadecan-18-yl)-N-(pyridin-4-yl)benzamide] | ≥ 75 | ≥ 75
5 | C[C@@H]1CN(CC(=O)N2CC(C)(C)c3ncc(Cc4ccc(F)cc4)cc32)[C@@H](CN(C)CCOCCOCCOCCOCCN[C@H](Cc2cccc(F)c2)C(=O)Nc2ccc(-c3ccncc3)cc2)CN1 [Example 11, (R)-18-(3-Fluorobenzyl)-1-((2R,5R)-1-(2-(6-(4-fluorobenzyl)-3,3-dimethyl-2,3-dihydro-1H-pyrrolo[3,2-b]pyridin-1-yl)-2-oxoethyl)-5-methylpiperazin-2-yl)-2-methyl-N-(4-(pyridin-4-yl)phenyl)-5,8,11,14-tetraoxa-2,17-diazanonadecan-19-amide] | 50 to 75 | ≥ 75
6 | COC[C@H]1CN[C@H](C)CN1CC(=O)N1CC(C)(C)c2ncc(Cc3ccccc3OCCOCCOCCOCCOCCNC[C@@H](C(=O)Nc3ccc4cnccc4c3)c3ccccc3)cc21 [Example 81, (S)-N-(Isoquinolin-6-yl)-1-(2-((1-(2-((2R,5R)-2-(methoxymethyl)-5-methylpiperazin-1-yl)acetyl)-3,3-dimethyl-2,3-dihydro-1H-pyrrolo[3,2-b]pyridin-6-yl)methyl)phenoxy)-17-phenyl-3,6,9,12-tetraoxa-15-azaoctadecan-18-amide] | 50 to 75 | 25 to 50
7 | COC[C@H]1CN[C@H](C)CN1CC(=O)N1CC(C)(C)c2ncc(Cc3ccccc3OCCOCCOCCOCCN[C@H](Cc3cccc(F)c3)C(=O)Nc3ccc(-c4ccncc4)cc3)cc21 [Example 73, (R)-2-(3-Fluorobenzyl)-14-(2-((1-(2-((2R,5R)-2-(methoxymethyl)-5-methylpiperazin-1-yl)acetyl)-3,3-dimethyl-2,3-dihydro-1H-pyrrolo[3,2-b]pyridin-6-yl)methyl)phenoxy)-N-(4-(pyridin-4-yl)phenyl)-6,9,12-trioxa-3-azatetradecanamide] | < 25 | ≥ 75
8 | COC[C@H]1CN[C@H](C)CN1CC(=O)N1CC(C)(C)c2ncc(Cc3ccccc3OCCOCCOCCOCCOCCOCCN[C@H](C)c3ccc(C(=O)Nc4ccncc4)cc3)cc21 [Example 68, 4-((R)-20-(2-((1-(2-((2R,5R)-2-(Methoxymethyl)-5-methylpiperazin-1-yl)acetyl)-3,3-dimethyl-2,3-dihydro-1H-pyrrolo[3,2-b]pyridin-6-yl)methyl)phenoxy)-6,9,12,15,18-pentaoxa-3-azaicosan-2-yl)-N-(pyridin-4-yl)benzamide] | ≥ 75 | –
9 | COC[C@H]1CN[C@H](C)CN1CC(=O)N1CC(C)(C)c2ncc(Cc3ccccc3OCCOCCOCCOCCOCCOCCNC[C@@H](C(=O)Nc3ccc4cnccc4c3)c3ccccc3)cc21 [Example 82, (S)-N-(Isoquinolin-6-yl)-1-(2-((1-(2-((2R,5R)-2-(methoxymethyl)-5-methylpiperazin-1-yl)acetyl)-3,3-dimethyl-2,3-dihydro-1H-pyrrolo[3,2-b]pyridin-6-yl)methyl)phenoxy)-20-phenyl-3,6,9,12,15-pentaoxa-18-azahenicosan-21-amide] | 25 to 50 | ≥ 75
10 | COC[C@H]1CN[C@H](C)CN1CC(=O)N1CC(C)(C)c2nc(CN(C)CCOCCOCCOCCOCCOCCOCCN[C@H](C)c3ccc(C(=O)Nc4ccncc4)cc3)c(Cc3ccc(F)cc3)cc21 [Example 27, 4-((R)-1-(6-(4-Fluorobenzyl)-1-(2-((2R,5R)-2-(methoxymethyl)-5-methylpiperazin-1-yl)acetyl)-3,3-dimethyl-2,3-dihydro-1H-pyrrolo[3,2-b]pyridin-5-yl)-2-methyl-5,8,11,14,17,20-hexaoxa-2,23-diazapentacosan-24-yl)-N-(pyridin-4-yl)benzamide] | < 25 | < 25
11 | COC[C@H]1CN[C@H](C)CN1CC(=O)N1CC(C)(C)c2nc(CN(C)CCOCCOCCN[C@H](C)c3ccc(C(=O)Nc4ccncc4)cc3)c(Cc3ccc(F)cc3)cc21 [Example 23, 4-((R)-1-(6-(4-Fluorobenzyl)-1-(2-((2R,5R)-2-(methoxymethyl)-5-methylpiperazin-1-yl)acetyl)-3,3-dimethyl-2,3-dihydro-1H-pyrrolo[3,2-b]pyridin-5-yl)-2-methyl-5,8-dioxa-2,11-diazatridecan-12-yl)-N-(pyridin-4-yl)benzamide] | ≥ 75 | ≥ 75
12 | COC[C@H]1CN[C@H](C)CN1CC(=O)N1CC(C)(C)c2ncc(Cc3ccccc3OCCOCCOCCOCCOCCOCCN[C@H](Cc3cccc(F)c3)C(=O)Nc3ccc(-c4ccncc4)cc3)cc21 [Example 75, (R)-2-(3-Fluorobenzyl)-20-(2-((1-(2-((2R,5R)-2-(methoxymethyl)-5-methylpiperazin-1-yl)acetyl)-3,3-dimethyl-2,3-dihydro-1H-pyrrolo[3,2-b]pyridin-6-yl)methyl)phenoxy)-N-(4-(pyridin-4-yl)phenyl)-6,9,12,15,18-pentaoxa-3-azaicosanamide] | < 25 | 50 to 75
13 | COC[C@H]1CN[C@H](C)CN1CC(=O)N1CC(C)(C)c2ncc(Cc3cccc(OCCOCCOCCOCCOCCOCCN[C@H](Cc4cccc(F)c4)C(=O)Nc4ccc(-c5ccncc5)cc4)c3)cc21 [Example 54, (R)-2-(3-Fluorobenzyl)-20-(3-((1-(2-((2R,5R)-2-(methoxymethyl)-5-methylpiperazin-1-yl)acetyl)-3,3-dimethyl-2,3-dihydro-1H-pyrrolo[3,2-b]pyridin-6-yl)methyl)phenoxy)-N-(4-(pyridin-4-yl)phenyl)-6,9,12,15,18-pentaoxa-3-azaicosanamide] | ≥ 75 | 25 to 50
14 | COC[C@H]1CN[C@H](C)CN1CC(=O)N1CC(C)(C)c2nc(CN(C)CCOCCOCCOCCOCCOCCOCCOCCN[C@H](Cc3cccc(F)c3)C(=O)Nc3ccc(-c4ccncc4)cc3)c(Cc3ccc(F)cc3)cc21 [Example 35, (R)-27-(3-Fluorobenzyl)-1-(6-(4-fluorobenzyl)-1-(2-((2R,5R)-2-(methoxymethyl)-5-methylpiperazin-1-yl)acetyl)-3,3-dimethyl-2,3-dihydro-1H-pyrrolo[3,2-b]pyridin-5-yl)-2-methyl-N-(4-(pyridin-4-yl)phenyl)-5,8,11,14,17,20,23-heptaoxa-2,26-diazaoctacosan-28-amide] | 50 to 75 | ≥ 75
15 | COC[C@H]1CN[C@H](C)CN1CC(=O)N1CC(C)(C)c2ncc(Cc3ccccc3OCCOCCOCCOCCOCCOCCOCCN[C@H](Cc3cccc(F)c3)C(=O)Nc3ccc(-c4ccncc4)cc3)cc21 [Example 76, (R)-2-(3-Fluorobenzyl)-23-(2-((1-(2-((2R,5R)-2-(methoxymethyl)-5-methylpiperazin-1-yl)acetyl)-3,3-dimethyl-2,3-dihydro-1H-pyrrolo[3,2-b]pyridin-6-yl)methyl)phenoxy)-N-(4-(pyridin-4-yl)phenyl)-6,9,12,15,18,21-hexaoxa-3-azatricosanamide] | < 25 | 50 to 75
